ChEMBL document CHEMBL1135684, “Identification of arodyn, a novel acetylated dynorphin A-(1-11) analogue, as a kappa opioid receptor antagonist” (J Med Chem, 2002)
pKi: −log10 of the molar value. Where a SMILES comes first, the peptide text is derived from it. [ ]: non-standard residue; d: D form.

Legend:
[1] = target: Kappa-type opioid receptor (Homo sapiens, UniProt P41145); assay: Binding affinity towards Opioid receptor kappa 1 using [3H]diprenorphine as radioligand expressed on chinese hamster ovary (CHO) cells; format: cell-based
Chain of Kappa-type opioid receptor (P41145 whole entry): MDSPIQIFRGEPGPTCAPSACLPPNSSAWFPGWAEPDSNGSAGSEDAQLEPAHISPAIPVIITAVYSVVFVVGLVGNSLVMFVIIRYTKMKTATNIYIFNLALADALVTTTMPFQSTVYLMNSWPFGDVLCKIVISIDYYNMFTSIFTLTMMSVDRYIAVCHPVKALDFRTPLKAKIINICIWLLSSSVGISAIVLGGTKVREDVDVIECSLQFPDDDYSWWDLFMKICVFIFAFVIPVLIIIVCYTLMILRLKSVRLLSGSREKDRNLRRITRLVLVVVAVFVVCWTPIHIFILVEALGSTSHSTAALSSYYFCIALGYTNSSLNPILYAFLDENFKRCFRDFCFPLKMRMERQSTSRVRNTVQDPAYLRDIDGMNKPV

Mu-type opioid receptor = Mu-type opioid receptor (Homo sapiens, UniProt P35372); assay: Binding affinity towards Opioid receptor mu 1 using [3H]DAMGO as radioligand
Chain of Mu-type opioid receptor (P35372 whole entry): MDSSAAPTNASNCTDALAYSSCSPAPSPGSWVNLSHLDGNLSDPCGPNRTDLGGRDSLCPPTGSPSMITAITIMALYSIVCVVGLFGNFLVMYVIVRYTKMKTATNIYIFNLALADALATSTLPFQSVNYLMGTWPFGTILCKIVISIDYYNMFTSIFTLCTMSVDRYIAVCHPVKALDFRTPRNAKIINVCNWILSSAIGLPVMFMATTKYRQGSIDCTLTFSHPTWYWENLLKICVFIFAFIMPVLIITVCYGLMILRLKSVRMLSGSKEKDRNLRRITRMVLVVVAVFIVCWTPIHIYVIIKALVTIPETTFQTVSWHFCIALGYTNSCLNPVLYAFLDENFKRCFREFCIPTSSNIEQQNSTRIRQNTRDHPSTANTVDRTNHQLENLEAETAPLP

[2] = target: Delta-type opioid receptor (Homo sapiens, UniProt P41143); assay: Binding affinity towards Opioid receptor delta 1 using [3H]DPDPE as radioligand; parameters: species or system Cricetulus griseus
Chain of Delta-type opioid receptor (P41143 whole entry): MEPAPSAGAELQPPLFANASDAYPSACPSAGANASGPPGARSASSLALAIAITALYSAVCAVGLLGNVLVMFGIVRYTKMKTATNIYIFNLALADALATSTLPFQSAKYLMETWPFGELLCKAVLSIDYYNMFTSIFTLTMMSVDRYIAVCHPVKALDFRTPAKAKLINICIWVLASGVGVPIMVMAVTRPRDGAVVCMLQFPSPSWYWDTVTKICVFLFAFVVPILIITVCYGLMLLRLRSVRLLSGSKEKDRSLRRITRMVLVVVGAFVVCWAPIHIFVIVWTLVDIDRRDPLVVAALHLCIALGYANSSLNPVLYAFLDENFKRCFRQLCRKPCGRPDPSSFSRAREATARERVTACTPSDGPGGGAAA

Row | SMILES | pKi [1] | pKi (Mu-type opioid receptor) | pKi [2]
1 | CSCC[C@H](NC(=O)[C@H](Cc1ccccc1)NC(=O)[C@H](CCCN=C(N)N)NC(C)=O)C(=O)N[C@@H](Cc1c[nH]c2ccccc12)C(=O)N[C@@H](CCSC)C(=O)N[C@@H](CCCN=C(N)N)C(=O)N[C@@H](CCCN=C(N)N)C(=O)N[C@H](C)C(=O)N[C@@H](CCCN=C(N)N)C(=O)N1CCC[C@H]1C(=O)N[C@@H](CCCCN)C(N)=O [EXTACET] | 8.18 | 8.95 | –
2 | CC(=O)N[C@@H](Cc1ccccc1)C(=O)N[C@@H](Cc1ccccc1)C(=O)N[C@@H](Cc1ccccc1)C(=O)N[C@@H](CCCNC(=N)N)C(=O)N[C@@H](CC(C)C)C(=O)N[C@@H](CCCNC(=N)N)C(=O)N[C@@H](CCCNC(=N)N)C(=O)N[C@H](C)C(=O)N[C@@H](CCCNC(=N)N)C(=O)N1CCC[C@H]1C(=O)N[C@@H](CCCCN)C(N)=O (Ac-FFFRLRR[dA]RPK-NH2) | – | – | 5.23
